Where a name gives a salt, the structure may show the parent alone.
Test: Spectrophotometric absorbance at 228 nm before and after 0.22 micron filtration (Example 12)
Assay type: physicochemical
Settings: 70% ethanol in water, organic solvent or mixture; as prepared in Example 1, 70% ethanol; read-out: concentration at which fully soluble
Method: A UV-VIS Genesys 105 Thermo Scientific spectrophotometer was used for the assay. Samples were placed in a UV Kurette Halbmicro/UV Cuvette semi micro [Cat no: 759150] for reading.
Because the reference describes measurements at μg/ml concentrations, both the filtered and unfiltered 18 mg/ml solutions were diluted to 9 μg/ml and 12.5 μg/ml and measured again.

solubility at 10 min: 18 mg/mL
Compound: CCCc1nn(C)c2c(=O)[nH]c(-c3cc(S(=O)(=O)N4CCN(C)CC4)ccc3OCC)nc12 [sildenafil citrate]

— patent publication US9968609B2, “Sildenafil solutions and methods of making and using same” (Vigorous Solutions Ltd., priority 2014, dated 2018)
